Laboratory results from article PMC8911752, “The Synthesis and Initial Evaluation of MerTK Targeted PET Agents” (Molecules, 2022).

Key:
Tyro3 = biological target: T1, Tyro3 (Homo sapiens, UniProt Q06418); experiment: Microcapillary electrophoresis (MCE) kinase assay, Tyro3; type: biochemical; conditions: ATP at Km, mean of two or more independent assays
T1 sequence (Q06418 41-890): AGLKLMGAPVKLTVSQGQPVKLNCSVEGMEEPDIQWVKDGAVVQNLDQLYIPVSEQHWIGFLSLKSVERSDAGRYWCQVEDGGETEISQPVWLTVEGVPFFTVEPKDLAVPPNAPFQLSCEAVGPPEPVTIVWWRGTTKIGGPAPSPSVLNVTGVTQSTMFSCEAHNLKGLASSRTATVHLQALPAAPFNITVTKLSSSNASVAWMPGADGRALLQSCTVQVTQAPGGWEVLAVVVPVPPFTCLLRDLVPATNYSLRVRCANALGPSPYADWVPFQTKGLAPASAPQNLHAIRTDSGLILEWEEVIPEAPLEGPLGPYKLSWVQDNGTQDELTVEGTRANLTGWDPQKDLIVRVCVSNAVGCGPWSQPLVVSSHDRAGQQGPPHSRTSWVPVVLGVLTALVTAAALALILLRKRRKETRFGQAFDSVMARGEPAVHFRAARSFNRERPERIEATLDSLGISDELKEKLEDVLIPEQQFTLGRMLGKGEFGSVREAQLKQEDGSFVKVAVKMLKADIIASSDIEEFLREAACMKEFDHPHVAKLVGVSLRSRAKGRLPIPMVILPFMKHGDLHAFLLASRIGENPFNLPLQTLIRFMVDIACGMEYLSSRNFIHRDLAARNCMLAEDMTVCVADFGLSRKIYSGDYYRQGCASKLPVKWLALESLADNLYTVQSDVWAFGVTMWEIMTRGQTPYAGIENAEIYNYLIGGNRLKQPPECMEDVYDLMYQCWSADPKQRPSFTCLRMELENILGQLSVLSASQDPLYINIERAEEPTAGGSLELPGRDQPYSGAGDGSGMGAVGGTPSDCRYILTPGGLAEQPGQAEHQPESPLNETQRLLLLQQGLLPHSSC
Experimental: The inhibitory activities of standards towards MerTK, Axl, Tyro3 and Flt3 were determined in our in-house microcapillary electrophoresis (MCE) assays.
Microcapillary Electrophoresis (MCE) Assays were performed with literature method. […] All reactions were terminated by addition of 20 µL of 70 mM EDTA. After an 180 min incubation, phosphorylated and unphosphorylated substrate peptides (Table 2) were separated in buffer supplemented with 1 x CR-8 on a LabChip EZ Reader equipped with a 12-sipper chip. Data were analyzed using EZ Reader software.

[1] = test system: B16F10 tumor-bearing mice; experiment: PET imaging in B16F10 tumor-bearing mice; type: in vivo; conditions: 68Ga-labeled, initial pilot study in mice
[2] = test system: B16F10 tumor-bearing mice; experiment: PET imaging in B16F10 tumor-bearing mice; type: in vivo; conditions: initial PET study, 18F-labeled agents
Experimental: Evaluation of the PET agent [^18F]-MerTK-6 was performed on B16F10 tumor-bearing mice. At 30 min post-injection (p.i), the uptake in tumor, liver, kidney, and muscle was 4.65 ± 1.25, 14.79 ± 0.99, 10.42 ± 1.01, and 2.51 ± 0.48%ID/g, respectively. The uptake at 2 h p.i. was 4.79 ± 0.24, 9.72 ± 1.56, 5.34 ± 1.25, and 1.55 ± 0.23%ID/g, respectively. Overall, the tumor uptake was maintained at ~5%ID/g and the tumor to muscle contrast increased to 3.09 at 2 h p.i, compared with 1.86 at 0.5 h p.i.
All animal studies were reviewed and approved by The University of North Carolina at Chapel Hill Institutional Animal Care and Use Committee. The B16F10 tumor cell was obtained from the LCCC tissue culture facility (the University of North Carolina at Chapel Hill, Chapel Hill, NC, USA). The B16F10 tumor-bearing […] mouse model was prepared as described previously. Briefly, B16/F10 cells were subcutaneously injected on the right flank of C57BL/6 female mice (Jackson Laboratory). The tumor volume was measured daily. When the tumor size reached 100 mm^3, the mice were used for PET imaging studies.
B16F10 tumor-bearing mice (n = 3/group) were intravenously injected via the tail vein with tracers. At 30 min and 120 min post-injection, a 10-min static emission scan was acquired with a SuperArgus small-animal PET/CT scanner. The regions of interests (ROIs) were drawn over the tumor and other organs and calculated as %ID/g. The mean uptake and standard deviation were calculated.

SMILES	IC50 (Tyro3) [nM]	tumor uptakes [1] [%ID/g]	tumor uptake and contrast compared with MerTK-5 [2]
C[C@H](Nc1ncc2c(C3CCN(C)CC3)cn([C@H]3CC[C@H](O)CC3)c2n1)c1ccccc1 [MerTK-2]	180	–	–
CCC[C@H](C)Nc1ncc2c(C3CCN(CCF)CC3)cn([C@H]3CC[C@H](O)CC3)c2n1 [MerTK-5]	190	–	–
C[C@H](Nc1ncc2c(C3CCN(C(=S)Nc4ccc(CC5CN(CC(=O)O)CCN(CC(=O)O)CCN5CC(=O)O)cc4)CC3)cn([C@H]3CC[C@H](O)CC3)c2n1)c1ccccc1 (stereo partly drawn) [MerTK-4]	180	< 1	–
C[C@H](Nc1ncc2c(C3CCN(CCF)CC3)cn([C@H]3CC[C@H](O)CC3)c2n1)c1ccccc1 [MerTK-6]	120	–	more prominent tumor uptake and contrast
